Reference: patent US20120253078A1, “Agent for Improving Carcass Performance in Finishing Hogs” (IGENE BIOTECHNOLOGY, INC., priority 2007, published 2012)

What was measured:
[1] = Growth performance of finishing pigs fed increasing levels of astaxanthin (d 0 to 26); assay type: in vivo, pigs (barrows, PIC TR4×C22 cross); settings: for ADFI / ADG / F/G / Final Wt.: d 0 to 26
Method: Procedures used in the experiment were approved by the Kansas State University Animal Care and Use Committee. The project was conducted at the KSU Swine Teaching and Research Farm. Pigs were housed in an environmentally regulated finishing building with pens over a totally slatted floor that provided approximately 8 ft^2 per pig. Each pen was equipped with a dry self-feeder and one nipple waterer, thereby providing ad libitum access to feed and water. The facility was a mechanically ventilated room with a pull-plug manure storage pit.
(§1) Forty-eight barrows (PIC, TR4×C22 cross) averaging 215 lb were used in the study. Pigs were blocked by weight and randomly allotted to one of the four dietary treatments with two pigs per pen and six pens per treatment. Experimental diets were provided in meal form and astaxanthin (0, 5, 10 and 20 ppm) was added to the control diet at the expense of corn starch to achieve the dietary treatments (Table 1). In Table 1, CP is crude protein; P is […]; ME is metabolizable energy; and TID is true ileal digestible. Pigs and feeders were weighed on day (d) 0, 7, 14, 21 and 26 to determine the growth performance criteria of average daily gain (ADG), average daily food intake (ADFI), and feed conversion (F/G).
(§2) Data were analyzed as a randomized complete block design using the PROC MIXED procedure of SAS with pen as the experimental unit. Linear and quadratic polynomial contrasts were used to determine the effect of increasing astaxanthin.
(§3) The source of natural astaxanthin used in the example was Phaffia rhodozyma which is commercially available under the trade name Aquasta® containing 10,000 ppm astaxanthin, by weight.

[2] = cited from earlier work
[3] = Carcass characteristics and loin eye color of finishing pigs fed astaxanthin; assay type: in vivo, pigs (barrows, PIC TR4×C22 cross); settings: for Loin eye area / Loin eye color CIE L* / Loin eye color CIE a* / Loin eye color CIE b*: 10th rib; for Loin eye area / Backfat-1st rib / Backfat-10th rib / Backfat-Last Lumbar / Backfat-Last rib: 24-h postmortem; for Loin eye color CIE L* / Loin eye color CIE a* / Loin eye color CIE b*: 30 minutes bloom time
Method: as §1
On d 27, one pig per pen was transported to the KSU meats lab for humane slaughter and collection of carcass data. Hot carcass weight was collected immediately after evisceration. First-rib, tenth-rib, last-rib, and last-lumbar backfat depth, as well as loin eye area at the 10th-rib, were collected from the right half of each carcass 24-h postmortem. Additionally, each carcass was evaluated for loin muscle color at the 10th-rib with a Hunter MiniScan instrument to measure CIE L*, a* and b*, known color parameters relating to brightness, red-to-green coloration and yellow-to-blue coloration, as known in the art. That was performed after 30 minutes of bloom time, the time to oxygenate myoglobin thereby obtaining maximal pink or red coloration, for each loin muscle surface.
as §2, §3

[4] = 5 ppm astaxanthin in the feed; cited from earlier work
[5] = astaxanthin 5, 10, 20 ppm in diet
[6] = 5 ppm astaxanthin in diet for 26 d
[7] = 5 ppm astaxanthin in diet for 26 d before slaughter
[8] = 10 ppm astaxanthin in diet for 26 d
[9] = 10 ppm astaxanthin in diet for 26 d before slaughter
[10] = 20 ppm astaxanthin in diet for 26 d
[11] = 20 ppm astaxanthin in diet for 26 d before slaughter

Structure (SMILES): CC1=C(/C=C/C(C)=C/C=C/C(C)=C/C=C/C=C(C)/C=C/C=C(C)/C=C/C2=C(C)C(=O)C(O)CC2(C)C)C(C)(C)CC(O)C1=O (stereo not drawn) [Astaxanthin, 3,3′-dihydroxy-β,β-carotene-4,4′dione]
- ADFI ([1]; 5 ppm astaxanthin in diet): 6.76 lb
- ADG ([1]; 5 ppm astaxanthin in diet): 2.23 lb
- F/G ([1]; 5 ppm astaxanthin in diet): 3.05
- Final Wt. ([1]; 5 ppm astaxanthin in diet): 273 lb
- ADFI ([1]; 10 ppm astaxanthin in diet): 6.24 lb
- ADG ([1]; 10 ppm astaxanthin in diet): 2.03 lb
- F/G ([1]; 10 ppm astaxanthin in diet): 3.08
- Final Wt. ([1]; 10 ppm astaxanthin in diet): 268 lb
- ADFI ([1]; 20 ppm astaxanthin in diet): 6.20 lb
- ADG ([1]; 20 ppm astaxanthin in diet): 1.99 lb
- F/G ([1]; 20 ppm astaxanthin in diet): 3.16
- Final Wt. ([1]; 20 ppm astaxanthin in diet): 267 lb
- ADG versus control pigs [1, 5]: not significantly different
- F/G versus control pigs [1, 5]: not significantly different
- average daily feed intake, trend ([1]; with increasing level of astaxanthin (0, 5, 10, 20 ppm)): tended to decrease
- effect on production performance ([2]; 0, 1.5 and 3.0 ppm astaxanthin in the diet): no significant effect
- effect on dressing percentage, backfat thickness and loin muscle area ([2]; with increasing dietary astaxanthin level (0, 1.5, 3.0 ppm)): linear effect
- percent fat-free lean (PFFL), comparison of doses ([3]; 5 or 10 ppm astaxanthin versus 0 or 20 ppm, p<0.10): greatest percent fat-free lean
- Loin eye area [3, 6]: 7.72 sq. in.
- Loin eye color CIE L* [3, 6]: 55.3
- Loin eye color CIE a* [3, 6]: 10.1
- Loin eye color CIE b* [3, 6]: 14.8
- Backfat-1st rib [3, 6]: 1.40 in.
- Backfat-10th rib [3, 6]: 0.65 in.
- Backfat-Last Lumbar [3, 6]: 0.60 in.
- Backfat-Last rib [3, 6]: 0.65 in.
- Fat-Free Lean [3, 7]: 55.6%
- Hot Carcass Wt. [3, 7]: 192 lb
- Live Wt. [3, 7]: 273 lb
- Standardized Fat-Free Lean [3, 7]: 107 lb
- Yield [3, 7]: 70.6%
- Loin eye area [3, 8]: 7.58 sq. in.
- Loin eye color CIE L* [3, 8]: 58.9
- Loin eye color CIE a* [3, 8]: 8.2
- Loin eye color CIE b* [3, 8]: 14.4
- Backfat-1st rib [3, 8]: 1.33 in.
- Backfat-10th rib [3, 8]: 0.65 in.
- Backfat-Last Lumbar [3, 8]: 0.56 in.
- Backfat-Last rib [3, 8]: 0.67 in.
- Fat-Free Lean [3, 9]: 55.5%
- Hot Carcass Wt. [3, 9]: 191 lb
- Live Wt. [3, 9]: 271 lb
- Standardized Fat-Free Lean [3, 9]: 106 lb
- Yield [3, 9]: 70.6%
- Loin eye area [3, 10]: 7.28 sq. in.
- Loin eye color CIE L* [3, 10]: 56.2
- Loin eye color CIE a* [3, 10]: 10.3
- Loin eye color CIE b* [3, 10]: 15.1
- Backfat-1st rib [3, 10]: 1.41 in.
- Backfat-10th rib [3, 10]: 0.70 in.
- Backfat-Last Lumbar [3, 10]: 0.57 in.
- Backfat-Last rib [3, 10]: 0.64 in.
- Fat-Free Lean [3, 11]: 54.5%
- Hot Carcass Wt. [3, 11]: 189 lb
- Live Wt. [3, 11]: 270 lb
- Standardized Fat-Free Lean [3, 11]: 103 lb
- Yield [3, 11]: 70.3%
- carcass traits and meat quality, benefit over lower doses ([3]; 20 ppm astaxanthin in the diet, optimum 5 to 10 ppm): no additional benefit
- backfat depth measured at the first rib, tenth rib and last rib, versus control ([3]; pigs fed astaxanthin, p<0.10): less backfat depth
- performance of sows (stillborn in the litter, parity) [4]: improved performance of sows
